Consider 14 molecules from patent publication EP1211260A1, “Peptides from Ag85 of mycobacterium and uses thereof” (priority 2000, dated 2002).

Where a SMILES comes first, the peptide text is derived from it.

The target of the first assay is Recombinant HLA-A*201 (Homo sapiens, UniProt P04439, D140Y/D185E/D98H/E176V/E277Q/G131W/G231S/I119V/I121R/I166T/I218V/L300P/L318F/N151K/N90K/P208A/P217A/Q86G/Q94H/R138H/R169H/T345S). As to the kind of experiment: biochemical. Format: binding.
Settings: not given
In the case of `CC[C@H](C)[C@H](NC(=O)[C@H](CCSC)NC(=O)[C@H](C)NC(=O)[C@H](CO)NC(=O)[C@H](CO)NC(=O)CNC(=O)[C@H](C)NC(=O)[C@H](CCSC)NC(=O)[C@@H](N)CO)C(=O)O` [126-134] (H-SMAGSSAMI-OH), the IC50 – broadly, the point on the concentration scale where inhibition reaches its midpoint – came out at 1.7 µM.

On to `CC(C)C[C@H](NC(=O)[C@H](CCCNC(=N)N)NC(=O)[C@@H](NC(=O)[C@H](CC(N)=O)NC(=O)[C@H](CC(N)=O)NC(=O)[C@H](C)NC(=O)[C@@H](NC(=O)[C@H](CC(C)C)NC(=O)[C@@H](N)CCCCN)C(C)C)[C@@H](C)O)C(=O)O` [199-207] (H-KLVANNTRL-OH), for which the IC50 was 1.4 µM.

The same assay, now with this note: 20°C, 48 h; standard peptide HBV core 47-56 (52->C); read-out: HLA-A2 Binding Affinity(IC50; µM).
On to `CC(C)C[C@H](NC(=O)[C@H](CC(N)=O)NC(=O)[C@H](CO)NC(=O)[C@H](CO)NC(=O)[C@H](CCCNC(=N)N)NC(=O)[C@@H](NC(=O)[C@H](Cc1ccccc1)NC(=O)[C@H](CC(N)=O)NC(=O)[C@H](CCC(=O)O)NC(=O)[C@H](CC(C)C)NC(=O)[C@@H](N)Cc1ccccc1)C(C)C)C(=O)O` [228-238] (H-FLENFVRSSNL-OH), for which the IC50 stood at 1.2 µM.

With `CC[C@H](C)[C@H](NC(=O)[C@H](CO)NC(=O)[C@H](CC(C)C)NC(=O)CN)C(=O)N[C@H](C(=O)N[C@@H](CCSC)C(=O)N1CCC[C@H]1C(=O)N[C@H](C(=O)O)C(C)C)C(C)C` [65-72] (H-GLSIVMPV-OH), the IC50 was found to be 0.3 µM.

With `CC(C)C[C@H](NC(=O)[C@@H](N)CCCNC(=N)N)C(=O)N[C@@H](Cc1c[nH]c2ccccc12)C(=O)N[C@H](C(=O)N[C@@H](Cc1ccc(O)cc1)C(=O)N[C@@H](CS)C(=O)NCC(=O)N[C@@H](CC(N)=O)C(=O)NCC(=O)N[C@H](C(=O)O)[C@@H](C)O)C(C)C` [206-215] (H-RLWVYCGNGT-OH), the IC50 was found to be 2 µM.

For the molecule `CC[C@H](C)[C@H](NC(=O)[C@H](CC(C)C)NC(=O)[C@H](CO)NC(=O)[C@@H]1CCCN1C(=O)CNC(=O)[C@H](CCSC)NC(=O)CN)C(=O)NCC(=O)N[C@@H](CC(C)C)C(=O)O` [158-166] (H-GMGPSLIGL-OH), the IC50 is 1.4 µM.

Turning to `CC[C@H](C)[C@H](NC(=O)[C@H](CCSC)NC(=O)[C@H](C)NC(=O)[C@H](CO)NC(=O)[C@H](CO)NC(=O)CNC(=O)[C@H](C)NC(=O)[C@H](CCSC)NC(=O)[C@@H](N)CO)C(=O)N[C@@H](CC(C)C)C(=O)O` [126-135] (H-SMAGSSAMIL-OH), the IC50 worked out at 0.5 µM.

As for `CC[C@H](C)[C@H](NC(=O)[C@@H](N)Cc1ccccc1)C(=O)N[C@@H](Cc1ccc(O)cc1)C(=O)N[C@@H](C)C(=O)NCC(=O)N[C@@H](CO)C(=O)N[C@@H](CC(C)C)C(=O)N[C@@H](CO)C(=O)N[C@@H](C)C(=O)N[C@@H](CC(C)C)C(=O)O` [143-152, FIYAGSLSAL] (H-FIYAGSLSAL-OH), the IC50 stood at 0.01 µM.

In the case of `CC[C@H](C)[C@H](NC(=O)[C@@H](N)Cc1ccccc1)C(=O)N[C@@H](Cc1ccc(O)cc1)C(=O)N[C@@H](C)C(=O)NCC(=O)N[C@@H](CO)C(=O)N[C@@H](CC(C)C)C(=O)N[C@@H](CO)C(=O)N[C@@H](C)C(=O)O` [143-151] (H-FIYAGSLSA-OH), the IC50 is 0.4 µM.

For `CC(C)C[C@H](NC(=O)[C@H](Cc1c[nH]c2ccccc12)NC(=O)[C@H](CCC(N)=O)NC(=O)[C@@H]1CCCN1C(=O)[C@H](CC(C)C)NC(=O)[C@H](CCC(=O)O)NC(=O)[C@H](CO)NC(=O)[C@@H](NC(=O)[C@H](CC(C)C)NC(=O)[C@@H](N)Cc1ccccc1)[C@@H](C)O)C(=O)O` [100-109] (H-FLTSELPQWL-OH), the IC50 turned out to be 0.7 µM.

For `CC(C)C[C@H](NC(=O)[C@H](Cc1c[nH]c2ccccc12)NC(=O)[C@H](CCC(N)=O)NC(=O)[C@@H]1CCCN1C(=O)[C@H](CC(C)C)NC(=O)[C@H](CCC(=O)O)NC(=O)[C@H](CO)NC(=O)[C@@H](NC(=O)[C@@H](N)CC(C)C)[C@@H](C)O)C(=O)O` [101-109] (H-LTSELPQWL-OH), the IC50 worked out at 6 µM.

On to `CC(C)C[C@H](NC(=O)[C@H](CCCNC(=N)N)NC(=O)[C@@H](NC(=O)[C@H](CC(N)=O)NC(=O)[C@H](CC(N)=O)NC(=O)[C@H](C)NC(=O)[C@@H](NC(=O)[C@H](CC(C)C)NC(=O)[C@@H](N)CCCCN)C(C)C)[C@@H](C)O)C(=O)N[C@@H](Cc1c[nH]c2ccccc12)C(=O)N[C@H](C(=O)O)C(C)C` [199-209] (H-KLVANNTRLWV-OH), for which the IC50 was determined as 0.6 µM.

Consider `CC(C)C[C@H](NC(=O)[C@H](Cc1ccc(O)cc1)NC(=O)[C@H](CCC(=O)O)NC(=O)[C@@H](NC(=O)[C@@H]1CCCN1C(=O)[C@H](CC(C)C)NC(=O)CN)C(C)C)C(=O)N[C@@H](CCC(N)=O)C(=O)N[C@H](C(=O)O)C(C)C` [5-13] (H-GLPVEYLQV-OH), for which the IC50 came out at 7 µM.

Regarding `CC(C)C[C@H](NC(=O)CNC(=O)[C@H](CC(=O)O)NC(=O)[C@H](CC(C)C)NC(=O)[C@H](CC(C)C)NC(=O)[C@@H](N)Cc1ccc(O)cc1)C(=O)N[C@@H](CCCNC(=N)N)C(=O)N[C@@H](C)C(=O)O` [37-44] (H-YLLDGLRA-OH), the IC50 is 1.6 µM.
